Measurements from PubChem BioAssay (NCI).
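How tested: cells in 96-well plates exposed to compound for 48 hours at five concentrations. GI50 marks 50% less growth. TGI: concentration producing complete growth inhibition.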

What was measured:
Assay in all cases: NCI-60 cell line screen, 48 h
DU-145 prostate = system: DU-145 prostate
TK-10 renal = system: TK-10 renal
LOX IMVI melanoma = system: LOX IMVI melanoma
BT-549 breast = system: BT-549 breast
K-562 leukemia = system: K-562 leukemia
SK-OV-3 ovarian = system: SK-OV-3 ovarian
SN12C renal = system: SN12C renal
PC-3 prostate = system: PC-3 prostate
OVCAR-8 ovarian = system: OVCAR-8 ovarian
OVCAR-3 ovarian = system: OVCAR-3 ovarian
MDA-N = system: MDA-N
KM12 colon = system: KM12 colon
A549 NSCLC = system: A549 NSCLC
SF-295 CNS = system: SF-295 CNS
HS 578T breast = system: HS 578T breast
MDA-MB-231 breast = system: MDA-MB-231 breast

SMILES | TGI (DU-145 prostate) [µM] | TGI (TK-10 renal) [µM] | TGI (LOX IMVI melanoma) [µM] | TGI (BT-549 breast) [µM] | TGI (K-562 leukemia) [µM] | TGI (SK-OV-3 ovarian) [µM] | TGI (SN12C renal) [µM] | TGI (PC-3 prostate) [µM] | TGI (OVCAR-8 ovarian) [µM] | TGI (OVCAR-3 ovarian) [µM] | TGI (MDA-N) [µM] | TGI (KM12 colon) [µM] | TGI (A549 NSCLC) [µM] | TGI (SF-295 CNS) [µM] | TGI (HS 578T breast) [µM] | TGI (MDA-MB-231 breast) [µM] | GI50 (SN12C renal) [µM]
O=c1[nH]ncc2[nH]c3c(c12)CCCc1ccccc1-3 | > 100 | > 100 | > 100 | > 100 | > 100 | > 100 | > 100 | > 100 | > 100 | > 100 | 98.8 | > 100 | > 100 | > 100 | 45.8 | – | –
O=C(Nc1ccccc1)N1CC(CN2CCN(c3ccccc3)CC2)OC1=O (configuration not stated) | > 100 | > 100 | > 100 | > 100 | > 100 | > 100 | > 100 | > 100 | – | – | > 100 | > 100 | > 100 | > 100 | > 100 | > 100 | –
O=C(C1=CCC2(CC1)OCCO2)N(Cc1ccccc1)c1ccccc1I | 63.6 | 44.5 | 56.8 | – | > 100 | 88.2 | 56 | 59.9 | 30.1 | 38.6 | 96.4 | 29.5 | > 100 | 51.8 | 22.7 | 68.1 | –
O=c1oc2ccccc2c(O)c1C(c1ccc([N+](=O)[O-])cc1)c1c(O)c2ccccc2oc1=O | > 100 | > 100 | > 100 | > 100 | – | – | > 100 | > 100 | > 100 | > 100 | > 100 | > 100 | – | – | > 100 | > 100 | –
c1csc(-c2cc(-c3ccsc3)c(-c3cccs3)s2)c1 | > 100 | > 100 | – | > 100 | > 100 | – | > 100 | > 100 | > 100 | > 100 | > 100 | > 100 | > 100 | > 100 | > 100 | > 100 | –
N[C@H]1CCc2c1nc1c(c2-c2ccccc2)CC[C@@H]1N | > 100 | > 100 | 30.6 | 28.1 | 26.6 | – | > 100 | 29.5 | > 100 | – | – | > 100 | > 100 | 45.5 | – | 66 | –
CCCCCCCCCCCCCCCCCCNc1ccn(C2OC(COP(=O)(O)OCCCCCCCCCCCCCCCC)C(O)C2O)c(=O)n1 (configuration not stated) | > 100 | > 100 | > 100 | – | > 100 | > 100 | > 100 | > 100 | > 100 | > 100 | – | > 100 | > 100 | > 100 | > 100 | > 100 | –
CCCCNC(=O)C1=C(C)NC(C)=C(C(=O)NCCCC)C1 | > 100 | > 100 | > 100 | > 100 | – | > 100 | > 100 | – | > 100 | > 100 | > 100 | > 100 | > 100 | > 100 | – | > 100 | –
Cc1ccc2c(c1)C(=O)C1(C2)Cc2ccc(C)cc2C1=O | > 100 | > 100 | > 100 | – | > 100 | > 100 | – | > 100 | > 100 | > 100 | > 100 | – | > 100 | > 100 | > 100 | > 100 | –
c1ccc(SCCP(CCP(c2ccccc2)c2ccccc2)c2ccccc2)cc1 (configuration not stated) | > 100 | > 100 | – | 68.7 | > 100 | > 100 | > 88.6 | – | > 100 | 39.9 | > 100 | > 51 | > 100 | > 100 | > 100 | > 100 | –
CCOC(=O)c1c(N2CCOCC2)[nH]c(=O)c(C(c2ccc(N(C)C)cc2)c2c(O)c(C(=O)OCC)c(N3CCOCC3)[nH]c2=O)c1O | > 100 | > 100 | > 100 | > 100 | > 100 | > 100 | > 100 | > 100 | > 100 | > 100 | – | > 100 | > 100 | > 100 | > 100 | > 100 | –
COc1cccc(NC(=O)c2c(SC)n[nH]c2N)c1 | – | > 100 | > 100 | > 100 | > 100 | > 100 | > 100 | > 100 | > 100 | – | > 100 | > 100 | > 100 | > 100 | > 100 | > 100 | –
C1CSCCSS[C@@H]2CCCCC2SC1 (some centres not stated) | > 100 | > 100 | > 100 | > 100 | > 100 | > 100 | > 100 | > 100 | > 100 | > 100 | > 100 | > 100 | > 100 | > 100 | – | > 100 | –
CCCC/C=C1\CCC(CN2CCOCC2)C1=O (configuration not stated) | 32.8 | 19.5 | 3.14 | 9.47 | 5.82 | 31 | 10.7 | 26.2 | 22.5 | 19.3 | 22.7 | 7.38 | 46.2 | 29.8 | – | 14.5 | –
CNC(=O)OC(C)CN1c2ccccc2Sc2ccccc21 (configuration not stated) | > 100 | > 100 | > 100 | > 100 | > 100 | > 100 | > 100 | > 100 | > 100 | > 100 | – | > 100 | > 100 | > 100 | > 100 | > 100 | –
Nc1nonc1-c1noc(-c2nonc2N)[n+]1[O-] | > 100 | > 100 | > 100 | > 100 | > 100 | > 100 | > 100 | > 100 | – | – | > 100 | > 100 | 90.7 | > 100 | > 100 | > 100 | –

SMILES | TGI (DU-145 prostate) [µM] | TGI (TK-10 renal) [µM] | TGI (LOX IMVI melanoma) [µM] | TGI (BT-549 breast) [µM] | TGI (K-562 leukemia) [µM] | TGI (SK-OV-3 ovarian) [µM] | TGI (SN12C renal) [µM] | TGI (PC-3 prostate) [µM] | TGI (OVCAR-8 ovarian) [µM] | TGI (OVCAR-3 ovarian) [µM] | TGI (MDA-N) [µM] | TGI (KM12 colon) [µM] | TGI (A549 NSCLC) [µM] | TGI (SF-295 CNS) [µM] | TGI (HS 578T breast) [µM] | TGI (MDA-MB-231 breast) [µM] | GI50 (SN12C renal) [µM]
O=c1cc2oc3ccc4ccccc4c3cc-2c(=O)[nH]1 | 27.6 | – | 21 | 11.2 | 82.1 | 34.5 | – | 22.4 | 4.53 | 24.4 | 23.8 | 42.7 | 42.8 | 37.1 | 58.4 | – | –
COc1cc(CSc2ccc(O)cc2)cc(O)c1O | > 100 | > 100 | > 100 | 63.6 | > 100 | – | 80.5 | > 100 | 58.2 | 67.6 | > 100 | 91.9 | > 100 | 51.6 | > 100 | 73.5 | –
COc1ccc(-n2c(C)nc3ccc(N=Cc4ccccc4)cc3c2=O)cc1 | > 100 | > 100 | > 100 | > 100 | > 100 | – | > 100 | > 100 | > 100 | > 100 | > 100 | > 100 | – | > 100 | > 100 | > 100 | –
COc1cccc2c1[C@H](OC)[C@]13O[C@@]1(C2=O)[C@H](O)[C@H](C)[C@@](O)(C(=O)[C@@H]1O[C@H]1C)[C@@H]3O | – | 10.7 | 0.648 | 1.28 | > 100 | 1.47 | 0.819 | – | 0.61 | 1.96 | 0.768 | > 36.5 | 0.729 | 0.558 | 0.618 | 0.977 | 0.0489
Cc1nnc2sc(-c3ccc(N)cc3)nn12 | > 100 | > 100 | – | – | > 100 | > 100 | > 100 | > 100 | > 100 | > 100 | – | > 100 | > 100 | > 100 | > 100 | > 100 | –
S=C(NNC1=NCCCCN1)Nc1ccccc1 | > 100 | – | 94.7 | > 100 | > 100 | > 100 | > 100 | > 100 | > 100 | > 100 | > 100 | > 100 | > 100 | > 100 | – | > 100 | –
CC(=O)NC1C(OCc2ccccc2)OC(CO)C(O)C1OCC(=O)NC(C)C(=O)NC(CCC(=O)OCCNC(=O)c1cccc2cc3ccccc3nc12)C(N)=O (configuration not stated) | 26.6 | 41.6 | 26.8 | 45.8 | > 100 | 58.2 | > 100 | > 100 | 39.4 | 43.3 | > 100 | 56.3 | 23.4 | 68.2 | – | – | –
COc1ccc(/C=C/c2cc(=O)cc(/C=C/c3ccc(OC)c(O)c3)o2)cc1O | > 29.3 | 16.9 | 3.95 | 10.3 | > 100 | 21.7 | > 33.6 | 12.3 | 10.1 | 6.51 | – | 4.26 | 12.6 | 13.3 | > 100 | 5.73 | –
Clc1ccc(OCc2nnc(CCCCCCCCc3nnc(COc4ccc(Cl)cc4)o3)o2)cc1 | > 100 | > 100 | – | > 100 | > 100 | > 100 | > 100 | > 100 | – | > 100 | > 100 | > 100 | > 100 | > 100 | – | > 100 | –
Cc1ccc(-c2n[nH]c(CC#N)n2)cc1 | > 100 | > 100 | > 100 | > 100 | > 100 | > 100 | > 100 | > 100 | > 100 | > 100 | – | > 100 | > 100 | > 100 | > 100 | – | –
CCN(CC)CC1CCCCN1CC(=O)N1c2ccc(Br)cc2C(=O)Nc2cccnc21 (configuration not stated) | > 100 | > 100 | > 100 | – | > 100 | > 100 | > 100 | > 100 | > 100 | > 100 | > 100 | > 100 | > 100 | > 100 | > 100 | > 100 | –
COC(=O)[C@@H]1C[C@H]2[C@H](c3ccccc3Br)[C@@H](OC(C)=O)[C@@H](OCc3ccccc3)ON2O1 | > 100 | > 100 | > 100 | > 100 | > 100 | > 100 | > 100 | > 100 | > 100 | > 100 | > 100 | > 100 | > 100 | > 100 | – | > 100 | –
c1ccc(N=C2SC(c3ccccc3)CN2C23CC4CC(CC(C4)C2)C3)cc1 (configuration not stated) | > 100 | > 100 | > 100 | > 100 | > 100 | – | > 100 | > 100 | > 100 | > 100 | > 100 | > 100 | > 100 | > 100 | > 100 | > 100 | –
CCOC(=O)C1C(=O)CC(C)(O)C(C(=O)OCC)C1c1ccc(O)c(OC)c1 (configuration not stated) | > 100 | > 100 | > 100 | > 100 | > 100 | – | > 100 | > 100 | > 100 | > 100 | > 100 | > 100 | > 100 | > 100 | – | > 100 | –
C[C@@H]1O[C@@H]2OCC[C@@H]2C2=C1C(=O)c1ccccc1C2=O | 21 | 34.1 | 5.65 | – | 32.7 | 89.9 | 29.8 | > 100 | > 100 | 10.2 | 3.35 | 30.7 | 41.9 | 33 | > 100 | > 100 | –
Cn1c2nc(=Nc3ccc(Cl)cc3)n3ccc4ccccc4c3c2c(=O)n1-c1ccccc1 | > 100 | > 100 | > 100 | > 100 | > 100 | – | > 100 | > 100 | > 100 | > 100 | > 100 | > 100 | – | > 100 | > 100 | > 100 | –
